What follows are molecules tested on Hs578T (assay: normalised viability (% of control), CellTiter-Blue; higher = more viable cells (100 = DMSO, 0 = benzethonium chloride kill control)). Conditions: incubation time: 72 h.
Description: (§1)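 DSRT, CellTiter-Blue viability, 72 h incubation. Signal is normalised to DMSO and benzethonium chloride controls. Value is the normalised response at dose 1.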

SMILES | normalised viability [%]
CC[C@H](CO)Nc1nc(NCc2ccccc2)c2ncn(C(C)C)c2n1 [Roscovitine] (1 nM) | 96.3

What follows are molecules tested on HDQ-P1 in the same assay as above. Conditions: incubation time: 72 h.
Description: as §1

SMILES | normalised viability [%]
COc1ccc(S(=O)(=O)Nc2cccnc2Nc2ccc(O)cc2)cc1 [ABT-751] (1 nM) | 114
Cc1cc(Nc2nc(N[C@@H](C)c3ncc(F)cn3)ncc2Cl)[nH]n1 [AZD1480] (0.1 nM) | 124
CNC(=O)c1ccccc1Sc1ccc2c(/C=C/c3ccccn3)n[nH]c2c1 [Axitinib] (1 nM) | 73.7
CC(O)(CS(=O)(=O)c1ccc(F)cc1)C(=O)Nc1ccc(C#N)c(C(F)(F)F)c1 (stereo unspecified) [Bicalutamide] (1 nM) | 100
CCN(CC)CCCC(C)Nc1ccnc2cc(Cl)ccc12 (stereo unspecified) [Chloroquine] (0.099 nM) | 112
CN(Cc1cnc2nc(N)nc(N)c2n1)c1ccc(C(=O)N[C@@H](CCC(=O)O)C(=O)O)cc1 [Methotrexate] (1 nM) | 114
COc1c2occc2cc2ccc(=O)oc12 [Methoxsalen] (1 nM) | 106
C=CCN(/C=C1/C(=O)O[C@H](COC)[C@@]2(C)C1=C(O)C(=O)C1=C2[C@H](OC(C)=O)C[C@]2(C)C(=O)CC[C@@H]12)CC=C [PX-866] (1 nM) | 107
CC[C@H](CO)Nc1nc(NCc2ccccc2)c2ncn(C(C)C)c2n1 [Roscovitine] (1 nM) | 83.1

These molecules were tested on MDA-MB-453 in the same assay as above. Conditions: incubation time: 72 h.
Description: as §1

SMILES | normalised viability [%]
COc1ccc(S(=O)(=O)Nc2cccnc2Nc2ccc(O)cc2)cc1 [ABT-751] (1 nM) | 90.5
Cc1cc(Nc2nc(N[C@@H](C)c3ncc(F)cn3)ncc2Cl)[nH]n1 [AZD1480] (0.1 nM) | 102
CNC(=O)c1ccccc1Sc1ccc2c(/C=C/c3ccccn3)n[nH]c2c1 [Axitinib] (1 nM) | 95.6
CC(O)(CS(=O)(=O)c1ccc(F)cc1)C(=O)Nc1ccc(C#N)c(C(F)(F)F)c1 (stereo unspecified) [Bicalutamide] (1 nM) | 97.8
CCN(CC)CCCC(C)Nc1ccnc2cc(Cl)ccc12 (stereo unspecified) [Chloroquine] (0.099 nM) | 107
CN(Cc1cnc2nc(N)nc(N)c2n1)c1ccc(C(=O)N[C@@H](CCC(=O)O)C(=O)O)cc1 [Methotrexate] (1 nM) | 101
COc1c2occc2cc2ccc(=O)oc12 [Methoxsalen] (1 nM) | 103
C=CCN(/C=C1/C(=O)O[C@H](COC)[C@@]2(C)C1=C(O)C(=O)C1=C2[C@H](OC(C)=O)C[C@]2(C)C(=O)CC[C@@H]12)CC=C [PX-866] (1 nM) | 101
CC[C@H](CO)Nc1nc(NCc2ccccc2)c2ncn(C(C)C)c2n1 [Roscovitine] (1 nM) | 104

What follows are molecules tested on BT-474 in the same assay as above. Conditions: incubation time: 72 h.
Description: as §1

SMILES | normalised viability [%]
COc1ccc(S(=O)(=O)Nc2cccnc2Nc2ccc(O)cc2)cc1 [ABT-751] (1 nM) | 100
Cc1cc(Nc2nc(N[C@@H](C)c3ncc(F)cn3)ncc2Cl)[nH]n1 [AZD1480] (0.1 nM) | 114
CNC(=O)c1ccccc1Sc1ccc2c(/C=C/c3ccccn3)n[nH]c2c1 [Axitinib] (1 nM) | 93.5
CC(O)(CS(=O)(=O)c1ccc(F)cc1)C(=O)Nc1ccc(C#N)c(C(F)(F)F)c1 (stereo unspecified) [Bicalutamide] (1 nM) | 113
CCN(CC)CCCC(C)Nc1ccnc2cc(Cl)ccc12 (stereo unspecified) [Chloroquine] (0.099 nM) | 100
CN(Cc1cnc2nc(N)nc(N)c2n1)c1ccc(C(=O)N[C@@H](CCC(=O)O)C(=O)O)cc1 [Methotrexate] (1 nM) | 101
COc1c2occc2cc2ccc(=O)oc12 [Methoxsalen] (1 nM) | 79.9
C=CCN(/C=C1/C(=O)O[C@H](COC)[C@@]2(C)C1=C(O)C(=O)C1=C2[C@H](OC(C)=O)C[C@]2(C)C(=O)CC[C@@H]12)CC=C [PX-866] (1 nM) | 102
CC[C@H](CO)Nc1nc(NCc2ccccc2)c2ncn(C(C)C)c2n1 [Roscovitine] (1 nM) | 91

The molecules below were run on CAL-148 in the same assay as above. Conditions: incubation time: 72 h.
Description: as §1

SMILES | normalised viability [%]
COc1ccc(S(=O)(=O)Nc2cccnc2Nc2ccc(O)cc2)cc1 [ABT-751] (1 nM) | 96.9
Cc1cc(Nc2nc(N[C@@H](C)c3ncc(F)cn3)ncc2Cl)[nH]n1 [AZD1480] (0.1 nM) | 112
CNC(=O)c1ccccc1Sc1ccc2c(/C=C/c3ccccn3)n[nH]c2c1 [Axitinib] (1 nM) | 94.9
CC(O)(CS(=O)(=O)c1ccc(F)cc1)C(=O)Nc1ccc(C#N)c(C(F)(F)F)c1 (stereo unspecified) [Bicalutamide] (1 nM) | 105
CCN(CC)CCCC(C)Nc1ccnc2cc(Cl)ccc12 (stereo unspecified) [Chloroquine] (0.099 nM) | 97.1
CN(Cc1cnc2nc(N)nc(N)c2n1)c1ccc(C(=O)N[C@@H](CCC(=O)O)C(=O)O)cc1 [Methotrexate] (1 nM) | 110
COc1c2occc2cc2ccc(=O)oc12 [Methoxsalen] (1 nM) | 112
C=CCN(/C=C1/C(=O)O[C@H](COC)[C@@]2(C)C1=C(O)C(=O)C1=C2[C@H](OC(C)=O)C[C@]2(C)C(=O)CC[C@@H]12)CC=C [PX-866] (1 nM) | 114
CC[C@H](CO)Nc1nc(NCc2ccccc2)c2ncn(C(C)C)c2n1 [Roscovitine] (1 nM) | 87.1

Each molecule was assayed on BT-549 in the same assay as above. Conditions: incubation time: 72 h.
Description: as §1

SMILES | normalised viability [%]
COc1ccc(S(=O)(=O)Nc2cccnc2Nc2ccc(O)cc2)cc1 [ABT-751] (1 nM) | 110
Cc1cc(Nc2nc(N[C@@H](C)c3ncc(F)cn3)ncc2Cl)[nH]n1 [AZD1480] (0.1 nM) | 109
CNC(=O)c1ccccc1Sc1ccc2c(/C=C/c3ccccn3)n[nH]c2c1 [Axitinib] (1 nM) | 96.2
CC(O)(CS(=O)(=O)c1ccc(F)cc1)C(=O)Nc1ccc(C#N)c(C(F)(F)F)c1 (stereo unspecified) [Bicalutamide] (1 nM) | 107
CCN(CC)CCCC(C)Nc1ccnc2cc(Cl)ccc12 (stereo unspecified) [Chloroquine] (0.099 nM) | 107
CN(Cc1cnc2nc(N)nc(N)c2n1)c1ccc(C(=O)N[C@@H](CCC(=O)O)C(=O)O)cc1 [Methotrexate] (1 nM) | 92.2
COc1c2occc2cc2ccc(=O)oc12 [Methoxsalen] (1 nM) | 97.6
C=CCN(/C=C1/C(=O)O[C@H](COC)[C@@]2(C)C1=C(O)C(=O)C1=C2[C@H](OC(C)=O)C[C@]2(C)C(=O)CC[C@@H]12)CC=C [PX-866] (1 nM) | 105
CC[C@H](CO)Nc1nc(NCc2ccccc2)c2ncn(C(C)C)c2n1 [Roscovitine] (1 nM) | 105

Each molecule was assayed on MFM-223 in the same assay as above. Conditions: incubation time: 72 h.
Description: as §1

SMILES | normalised viability [%]
COc1ccc(S(=O)(=O)Nc2cccnc2Nc2ccc(O)cc2)cc1 [ABT-751] (1 nM) | 92.1
Cc1cc(Nc2nc(N[C@@H](C)c3ncc(F)cn3)ncc2Cl)[nH]n1 [AZD1480] (0.1 nM) | 92.3
CNC(=O)c1ccccc1Sc1ccc2c(/C=C/c3ccccn3)n[nH]c2c1 [Axitinib] (1 nM) | 95.5
CC(O)(CS(=O)(=O)c1ccc(F)cc1)C(=O)Nc1ccc(C#N)c(C(F)(F)F)c1 (stereo unspecified) [Bicalutamide] (1 nM) | 94.8
CCN(CC)CCCC(C)Nc1ccnc2cc(Cl)ccc12 (stereo unspecified) [Chloroquine] (0.099 nM) | 102
CN(Cc1cnc2nc(N)nc(N)c2n1)c1ccc(C(=O)N[C@@H](CCC(=O)O)C(=O)O)cc1 [Methotrexate] (1 nM) | 99.9
COc1c2occc2cc2ccc(=O)oc12 [Methoxsalen] (1 nM) | 93.1
C=CCN(/C=C1/C(=O)O[C@H](COC)[C@@]2(C)C1=C(O)C(=O)C1=C2[C@H](OC(C)=O)C[C@]2(C)C(=O)CC[C@@H]12)CC=C [PX-866] (1 nM) | 87.4
CC[C@H](CO)Nc1nc(NCc2ccccc2)c2ncn(C(C)C)c2n1 [Roscovitine] (1 nM) | 96.5

What follows are molecules tested on DU-4475 (assay: normalised viability (% of control), CellTiter-Blue; higher = more viable cells (about 100 = DMSO control)). Conditions: incubation time: 72 h.
Description: (§2)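 DSRT, CellTiter-Blue viability, 72 h incubation. Signal is normalised to DMSO and benzethonium chloride controls. Value is the normalised response at dose 8.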

SMILES | normalised viability [%]
CC[C@H](CO)Nc1nc(NCc2ccccc2)c2ncn(C(C)C)c2n1 [Roscovitine] (3000 nM) | 114

These molecules were tested on CAL-51 in the same assay as above. Conditions: incubation time: 72 h.
Description: as §2

SMILES | normalised viability [%]
CC[C@H](CO)Nc1nc(NCc2ccccc2)c2ncn(C(C)C)c2n1 [Roscovitine] (3000 nM) | 107

The molecules below were run on CAL-85-1 in the same assay as above. Conditions: incubation time: 72 h.
Description: as §2

SMILES | normalised viability [%]
CC[C@H](CO)Nc1nc(NCc2ccccc2)c2ncn(C(C)C)c2n1 [Roscovitine] (3000 nM) | 82.6

The molecules below were run on HDQ-P1 in the same assay as above. Conditions: incubation time: 72 h.
Description: as §2

SMILES | normalised viability [%]
CC[C@H](CO)Nc1nc(NCc2ccccc2)c2ncn(C(C)C)c2n1 [Roscovitine] (3000 nM) | 91

The molecules below were run on MDA-MB-453 in the same assay as above. Conditions: incubation time: 72 h.
Description: as §2

SMILES | normalised viability [%]
CC[C@H](CO)Nc1nc(NCc2ccccc2)c2ncn(C(C)C)c2n1 [Roscovitine] (3000 nM) | 86.5

The molecules below were run on CAL-148 in the same assay as above. Conditions: incubation time: 72 h.
Description: as §2

SMILES | normalised viability [%]
CC[C@H](CO)Nc1nc(NCc2ccccc2)c2ncn(C(C)C)c2n1 [Roscovitine] (3000 nM) | 80.4

Source: the supplement of paper PMC4862054
